Data on one compound can be found in patent US20010046986A1, “Method for controlling flies” (priority 2000, published 2001).

The subject of the experiment is Musca domestica. The conditions noted are these: female Musca domestica imagoes of a sensitive strain; oral, 1 μL of 50 ppm liquid composition in 5% granulated sugar solution (0.05 μg clothianidin); after 24 hours. The protocol:
Insecticidal test by oral administration to Musca domestica
A clothianidin solution in alcohol was diluted with 5% granulated sugar solution to prepare a 50 ppm liquid composition of clothianidin.
Female Musca domestica imagoes (ten flies) of a sensitive strain kept without water for 3˜4 hours were anesthetized and lightly fixed to a pressure sensitive adhesive sheet which was cut into strips. After the test insects came out from the anesthetic, 1 μL of the liquid composition (containing 0.05 μg of clothianidin) was released from an injection needle attached to a micro dropper so that the test insects inhaled the composition.

The structures appear in SMILES notation.

On to `CN/C(=N\[N+](=O)[O-])NCc1cnc(Cl)s1` [clothianidin, (E)-1-(2-chloro-1,3-thiazol-5-ylmethyl)-3-methyl-2-nitroguanidine], for which the “insecticidal effect (flies dead)” value is “all flies were dead”.
